Data taken from PubChem BioAssay (NCI).
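The compound was tested at five concentrations on cells cultured in 96-well plates, with a 48-hour exposure period. GI50 = concentration required for 50% inhibition of growth. TGI denotes the concentration required for complete inhibition of growth.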

How the values were obtained:
Assay in all cases: NCI tumour cell line growth inhibition, 48 h
HL-60(TB) leukemia = system: HL-60(TB) leukemia
HCC-2998 colon = system: HCC-2998 colon
MALME-3M melanoma = system: MALME-3M melanoma
HCT-116 colon = system: HCT-116 colon
DU-145 prostate = system: DU-145 prostate
M14 melanoma = system: M14 melanoma
NCI-H460 lung = system: NCI-H460 lung
UACC-257 melanoma = system: UACC-257 melanoma
EKVX NSCLC = system: EKVX NSCLC
MCF7 breast = system: MCF7 breast
NCI-H23 lung = system: NCI-H23 lung
RXF 393 renal = system: RXF 393 renal

| Compound | TGI (HL-60(TB) leukemia) [µM] | TGI (HCC-2998 colon) [µM] | TGI (MALME-3M melanoma) [µM] | TGI (HCT-116 colon) [µM] | TGI (DU-145 prostate) [µM] | TGI (M14 melanoma) [µM] | TGI (NCI-H460 lung) [µM] | TGI (UACC-257 melanoma) [µM] | TGI (EKVX NSCLC) [µM] | TGI (MCF7 breast) [µM] | TGI (NCI-H23 lung) [µM] | TGI (RXF 393 renal) [µM] | GI50 (NCI-H23 lung) [nM] | GI50 (HCC-2998 colon) [nM] | GI50 (DU-145 prostate) [nM] | GI50 (M14 melanoma) [nM] | GI50 (NCI-H460 lung) [nM] | GI50 (UACC-257 melanoma) [nM] | GI50 (EKVX NSCLC) [nM] |
| --- | --- | --- | --- | --- | --- | --- | --- | --- | --- | --- | --- | --- | --- | --- | --- | --- | --- | --- | --- |
| O=C1c2ccccc2C(=O)N1CC(O)COc1cccc2ccccc12 (stereo unspecified) | > 100 | > 100 | > 100 | > 100 | > 100 | > 100 | > 100 | > 100 | > 100 | > 100 | – | – | – | – | – | – | – | – | – |
| NC(=S)N/N=C\c1nccc2ccccc12 | 40.4 | > 68.4 | > 23.1 | > 59.4 | > 100 | 2.42 | 25.5 | > 58.6 | 2.21 | 11.9 | > 100 | – | – | – | – | – | – | – | – |
| Cc1ccc(S(=O)(=O)N2CCCSCC2)cc1 | – | > 100 | – | > 100 | > 100 | – | > 100 | > 100 | – | > 100 | > 100 | > 100 | – | – | – | – | – | – | – |
| CCCC(=O)Nc1cc(/C=C/C(=O)N2CC(CCl)c3c2cc(O)c2[nH]cc(C)c32)n(C)c1 (stereo unspecified) | – | – | – | – | 0.000817 | – | – | – | 0.00293 | – | < 2.5e-05 | < 2.5e-05 | – | – | – | – | – | – | – |
| Oc1ccc(-c2nc3ccc(Cl)cc3s2)cc1 | 57.7 | – | 36 | 29.5 | 31.1 | > 100 | 36.1 | 34.4 | 31 | 22.6 | 36.5 | 44 | – | – | – | – | – | – | – |
| CC1(C)OCC=CCO1 | > 100 | > 100 | > 100 | > 100 | > 100 | > 100 | > 100 | > 100 | > 100 | > 100 | > 100 | > 100 | – | – | – | – | – | – | – |
| COc1cc2c(cc1OCCCC(=O)Nc1ccc3ccc4cccc5ccc1c3c45)N=C[C@@H]1CCCN1C2=O | – | < 0.0157 | – | – | < 0.01 | < 0.01 | 0.31 | 0.104 | 0.169 | 0.297 | < 0.01 | – | < 10 | < 10 | < 10 | < 10 | < 48.4 | 36.8 | 29.9 |
| CC(=O)c1cc2ccccc2oc1=O | > 100 | > 100 | > 100 | > 100 | > 100 | > 100 | > 100 | > 100 | > 100 | > 100 | > 100 | > 100 | – | – | – | – | – | – | – |
| COc1cc(C(O)(CC#N)c2cc3c(cc2Br)OCO3)cc(OC)c1OC (stereo unspecified) | – | 66.1 | – | > 100 | > 100 | 50.5 | 50.8 | > 100 | > 100 | > 100 | > 100 | > 100 | – | – | – | – | – | – | – |
| O=C1C(Cl)=C(Nc2ccc(S(=O)(=O)Nc3ccccn3)cc2)C(=O)c2ccccc21 | > 50.5 | 24.8 | 7.6 | 18.8 | 25.9 | 15.4 | 19.2 | 10.3 | 31.7 | 12.9 | 25.2 | 22.6 | – | – | – | – | – | – | – |
| CC1=C(C)Cc2c(O)ccc(O)c2C1 | 23.5 | – | 31.6 | 29.5 | 39.7 | 30 | > 100 | 32.2 | 29.5 | 51.3 | > 100 | 30 | – | – | – | – | – | – | – |
